Measured values published in PubChem BioAssay AID330 (DTP/NCI, 2004).
Values joined by “and” are separate entries in the source; they are usually repeats but may differ in a detail not shown here. Equal entries are not always repeated. Toxic doses and inconclusive results are not listed. Rule for the calls: active = survival T/C of 150% or more; inactive = T/C below 125% in these data. Peptide text beside a SMILES is read from it. * marks the point of attachment. Cbz = O=C(OCc1ccccc1)*

Tested on: P388 leukemia ip, CD2F1 mice, survival T/C
Experiment: NCI In Vivo Anticancer Drug Screen. Data for tumor model P388 Leukemia (intraperitoneal) in CD2F1 (CDF1) mice
Settings: endpoint: median survival time, higher = longer survival
Method in brief: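 Mice carrying the transplanted tumor received test compound or vehicle. Survival was recorded in each group, and the value is the treated-group measurement divided by that of the vehicle-treated control group.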

[1] = dose: 100.0 mg/kg/injection, schedule: Q01DX001 (ip), vehicle: Klucel (hydroxypropylcellulose) (HPC)
[2] = dose: 200.0 mg/kg/injection, schedule: Q01DX001 (ip), vehicle: Klucel (hydroxypropylcellulose) (HPC)
[3] = dose: 400.0 mg/kg/injection, schedule: Q01DX001 (ip), vehicle: Klucel (hydroxypropylcellulose) (HPC)
[4] = dose: 50.0 mg/kg/injection, schedule: Q01DX005 (ip), vehicle: saline with Tween-80
[5] = dose: 100.0 mg/kg/injection, schedule: Q01DX005 (ip), vehicle: saline with Tween-80
[6] = dose: 200.0 mg/kg/injection, schedule: Q01DX005 (ip), vehicle: saline with Tween-80
[7] = dose: 100.0 mg/kg/injection, schedule: Q04DX003 (ip), vehicle: saline
[8] = dose: 200.0 mg/kg/injection, schedule: Q04DX003 (ip), vehicle: saline
[9] = dose: 100.0 mg/kg/injection, schedule: Q01DX009 (ip), vehicle: saline
[10] = dose: 200.0 mg/kg/injection, schedule: Q01DX009 (ip), vehicle: saline
[11] = dose: 6.25 mg/kg/injection, schedule: Q01DX009 (ip), vehicle: saline
[12] = dose: 25.0 mg/kg/injection, schedule: Q01DX009 (ip), vehicle: saline
[13] = dose: 60.0 mg/kg/injection, schedule: Q01DX005 (ip), vehicle: saline with Tween-80
[14] = dose: 120.0 mg/kg/injection, schedule: Q01DX005 (ip), vehicle: saline with Tween-80
[15] = dose: 12.5 mg/kg/injection, schedule: Q01DX005 (ip), vehicle: saline with Tween-80
[16] = dose: 25.0 mg/kg/injection, schedule: Q01DX005 (ip), vehicle: saline with Tween-80

Measured: T/C

COc1cc2ccnc(CCCc3nccc4cc(OC)c(OC)cc34)c2cc1OC
inactive: dose: 25.0 mg/kg/injection, schedule: Q04DX002 (ip), vehicle: Klucel (hydroxypropylcellulose) (HPC) 101 % of control | dose: 50.0 mg/kg/injection, schedule: Q04DX002 (ip), vehicle: Klucel (hydroxypropylcellulose) (HPC) 95 % of control | dose: 100.0 mg/kg/injection, schedule: Q04DX002 (ip), vehicle: Klucel (hydroxypropylcellulose) (HPC) 101 % of control and 104 % of control

CCC(C)C(NC(=O)OCc1ccccc1)C(=O)NC(CC(C)C)C(=O)O (stereo not drawn) (Cbz-Ile-Leu-OH; configuration not given here)
inactive: dose: 50.0 mg/kg/injection, schedule: Q01DX005 (ip), vehicle: Klucel (hydroxypropylcellulose) (HPC) 114 % of control | dose: 100.0 mg/kg/injection, schedule: Q01DX005 (ip), vehicle: Klucel (hydroxypropylcellulose) (HPC) 99 % of control | dose: 200.0 mg/kg/injection, schedule: Q01DX005 (ip), vehicle: Klucel (hydroxypropylcellulose) (HPC) 99 % of control

C(=C\C1N=C1c1ccccc1)/c1ccc2ccccc2c1 (stereo not given)
inactive: dose: 50.0 mg/kg/injection, schedule: Q04DX002 (ip), vehicle: suspension in saline 99 % of control | dose: 100.0 mg/kg/injection, schedule: Q04DX002 (ip), vehicle: suspension in saline 97 % of control | dose: 200.0 mg/kg/injection, schedule: Q04DX002 (ip), vehicle: suspension in saline 99 % of control

Nn1c(-c2cnns2)n[nH]c1=S
inactive: [1] 100 % of control | [2] 100 % of control | [3] 105 % of control

CCO/C=N/NC(=O)c1n[nH]c2ccccc12
inactive: [4] 106 % of control | [5] 100 % of control | [6] 106 % of control

Nc1ccc(SCCOC(c2ccccc2)(c2ccccc2)c2ccccc2)cc1
inactive: [7] 101 % of control | [8] 99 % of control | dose: 400.0 mg/kg/injection, schedule: Q04DX003 (ip), vehicle: saline 102 % of control

CC(=N\O)/C(C)=N/O.CC(=N\O)/C(C)=N/O.CCCC1CC[N-]CC1.CCCC1CC[N-]CC1.CCCC1CC[N-]CC1.CCCC1CC[N-]CC1.[Cl-].[Cl-].[Cl][Rh][Cl].[Rh+3]
inactive: dose: 2.78 mg/kg/injection, schedule: Q01DX009 (ip), vehicle: saline with Tween-80 120 % of control

CCN=C(N)N=C(N)N
inactive: dose: 25.0 mg/kg/injection, schedule: Q01DX001 (ip), vehicle: saline 108 % of control | dose: 50.0 mg/kg/injection, schedule: Q01DX001 (ip), vehicle: saline 87 % of control | dose: 50.0 mg/kg/injection, schedule: Q01DX009 (ip), vehicle: saline 100 % of control | dose: 100.0 mg/kg/injection, schedule: Q01DX001 (ip), vehicle: saline 87 % of control | [9] 107 % of control | [10] 98 % of control

Nc1ccccc1N=C(CC(=O)c1ccco1)C(F)(F)F
inactive: [11] 99 % of control | [12] 91 % of control | [9] 88 % of control | [10] 105 % of control

Cc1c2c(n(C)c1C)C(=O)C=CC2=O
inactive: dose: 50.0 mg/kg/injection, schedule: Q01DX001 (ip), vehicle: Klucel (hydroxypropylcellulose) (HPC) 100 % of control | [1] 113 % of control

C[C@@H]1C[C@@]2(C)[C@@H](CC[C@@H]3[C@@H]2CC[C@@]2(C)[C@H]3CC[C@]2(C)O)CC1=O
inactive: dose: 25.0 mg/kg/injection, schedule: Q01DX009 (ip), vehicle: saline sonified 95 % of control | dose: 25.0 mg/kg/injection, schedule: Q04DX003 (ip), vehicle: saline with Tween-80 100 % of control | dose: 50.0 mg/kg/injection, schedule: Q01DX009 (ip), vehicle: saline sonified 86 % of control | dose: 50.0 mg/kg/injection, schedule: Q04DX003 (ip), vehicle: saline with Tween-80 100 % of control | dose: 100.0 mg/kg/injection, schedule: Q01DX009 (ip), vehicle: saline sonified 95 % of control | dose: 100.0 mg/kg/injection, schedule: Q04DX003 (ip), vehicle: saline with Tween-80 100 % of control

CCCCCCCCCCNCCS
inactive: dose: 5.0 mg/kg/injection, schedule: Q01DX009 (ip), vehicle: saline 91 % of control | dose: 10.0 mg/kg/injection, schedule: Q01DX009 (ip), vehicle: saline 91 % of control | dose: 20.0 mg/kg/injection, schedule: Q01DX009 (ip), vehicle: saline 95 % of control

CCCCCCC(O)C/C=C\CCCCCCc1c(C(=O)OC)[nH]c(=S)[nH]c1=O (stereo not given)
inactive: [13] 94 % of control | [14] 97 % of control

CN(C)c1c(Cl)c(=O)oc2c1ccc1nc(-c3ccccc3)ncc12
inactive: [13] 97 % of control | [14] 88 % of control

CCC(C)NCCNCCNC(C)CC (stereo not given)
inactive: [11] 100 % of control | dose: 12.5 mg/kg/injection, schedule: Q01DX009 (ip), vehicle: saline 100 % of control | [12] 100 % of control

C=C(C)OP(=O)(OCC)OCC
inactive: [1] 100 % of control | [2] 111 % of control | [3] 102 % of control

c1ccc(N(c2ccccc2)c2nnnn2-c2ccccc2)cc1
inactive: dose: 25.0 mg/kg/injection, schedule: Q01DX009 (ip), vehicle: saline with Tween-80 98 % of control | dose: 50.0 mg/kg/injection, schedule: Q01DX009 (ip), vehicle: saline with Tween-80 94 % of control | dose: 100.0 mg/kg/injection, schedule: Q01DX009 (ip), vehicle: saline with Tween-80 89 % of control

COC(=O)C1=C(C(=O)OC)C(C)(C)N=N1
inactive: dose: 5.3 mg/kg/injection, schedule: Q01DX009 (ip), vehicle: other 111 % of control | dose: 8.0 mg/kg/injection, schedule: Q01DX009 (ip), vehicle: other 117 % of control | dose: 12.0 mg/kg/injection, schedule: Q01DX009 (ip), vehicle: other 114 % of control | dose: 18.0 mg/kg/injection, schedule: Q01DX009 (ip), vehicle: other 112 % of control | dose: 25.0 mg/kg/injection, schedule: Q01DX009 (ip), vehicle: other 99 % of control

CCCCCCCN(CCCCCCC)CCCC(O)c1cccc2ccccc12 (stereo not given)
inactive: [15] 104 % of control | [16] 107 % of control | [4] 103 % of control | [5] 107 % of control

O=C(NCCCl)OCC1=C(COC(=O)NCCCl)C(=O)c2ccccc2C1=O
inactive: [15] 100 % of control and 102 % of control | [16] 101 % of control and 106 % of control | [4] 110 % of control | [5] 113 % of control

O=c1cc(F)cc[nH]1
inactive: dose: 50.0 mg/kg/injection, schedule: Q01DX005 (ip), vehicle: saline 103 % of control | dose: 100.0 mg/kg/injection, schedule: Q01DX005 (ip), vehicle: saline 104 % of control | dose: 200.0 mg/kg/injection, schedule: Q01DX005 (ip), vehicle: saline 109 % of control

COc1cccnc1/C=N/NC(N)=S
inactive: dose: 3.13 mg/kg/injection, schedule: Q01DX009 (ip), vehicle: saline with Tween-80 124 % of control

CN(C(=O)c1cc2c(cc1Br)OCO2)c1cccc2ccccc12
inactive: dose: 12.5 mg/kg/injection, schedule: Q01DX009 (ip), vehicle: distilled water + Tween-80 98 % of control | dose: 25.0 mg/kg/injection, schedule: Q01DX009 (ip), vehicle: distilled water + Tween-80 103 % of control | dose: 50.0 mg/kg/injection, schedule: Q01DX009 (ip), vehicle: distilled water + Tween-80 103 % of control | dose: 100.0 mg/kg/injection, schedule: Q01DX009 (ip), vehicle: distilled water + Tween-80 95 % of control | dose: 200.0 mg/kg/injection, schedule: Q01DX009 (ip), vehicle: distilled water + Tween-80 100 % of control

O=C(O)c1ccc[nH]c1=O
inactive: dose: 25.0 mg/kg/injection, schedule: Q04DX003 (ip), vehicle: saline 98 % of control | dose: 50.0 mg/kg/injection, schedule: Q04DX003 (ip), vehicle: saline 112 % of control | [7] 99 % of control | [8] 93 % of control

CC(=O)NCc1cc([N+](=O)[O-])ccc1O
inactive: [4] 101 % of control | [5] 94 % of control | [6] 99 % of control

CCN(CC)OC(=O)/C=C/c1ccccc1
inactive: dose: 30.0 mg/kg/injection, schedule: Q01DX005 (ip), vehicle: saline with Tween-80 95 % of control | [13] 98 % of control and 93 % of control | [14] 86 % of control
